Experimental data as given in patent publication US10426772B2, “Use of ergot alkaloids as an anthelmintic agent” (priority 2016, dated 2019).
Entries after “also recorded” stand apart in the source; their conditions may differ. Like-named read-outs stand apart in the source and are kept apart here.

Key:
Sm.5HTR [1] = molecular target: Sm.5HTR (Schistosoma mansoni, UniProt A0A173FEI8); test: cell-based; settings: for antagonist activity at Sm.5HTR, in words: FIG. 18B
Method: HEK293 cells (ATCC CRL-1573.3) were cultured in growth media consisting of DMEM supplemented with GlutaMAX (Gibco cat #10566016)+10% heat inactivated fetal bovine serum and penicillin-streptomycin (100 units/mL, ThermoFisher). Stable cell lines for the pGloSensor-22F cAMP Plasmid (Promega) and schistosome 5HTRs in pcDNA3.1(−) were selected with hygromycin (200 μg/mL) and G418 (400 μg/mL). The correct identity of each stably expressed sequence was verified by isolating total RNA from each stable line (TRIzol Reagent, Ambion) and amplifying the sequence of interest with gene specific primers flanking the 5′ and 3′ regions of the cds (SuperScript® III One-Step RT-PCR System, Invitrogen). PCR products were ligated into a TA cloning vector (pGEM-T Easy, Promega) and sequenced.
HEK293 lines stably expressing both the 22F cAMP sensor and Sm.5HTR were cultured in growth media supplemented with 10% dialyzed FRS. For cAMP assays in 96 well format, cells cultured in T-75 flasks were trypsinized (TrypLE Express, Gibco) and plated in solid white 96 well plates (Costar cat #3917) the day prior to assay at a density of 2.5×10^4 cells/well. The following day media was removed and replaced with assay buffer consisting of HBSS buffered with HEPES (20 mM, pH 7.4)+BSA (0.1% w/v) and D-luciferin sodium salt (1 mg/mL, Gold Biotechnology). Plates were equilibrated at room temperature for 1 hour, at which point 3-Isobutyl-1-methylxanthine (IBMX 200 μM, Sigma Aldrich) was added. Plates were equilibrated a further 30 minutes prior to test compound addition. […] Readings performed in 384 well format were modified so that cells were assayed in suspension. Cells were grown to 70% confluence in T-75 flasks, trypsinized and pelleted (300 RCF×5 minutes). Media was removed and cells were resuspended in 25 mL assay buffer supplemented with IBMX (200 μM). A 96 channel semi-automated pipet (Eppendorf epMotion 96) delivered 55 μL of cell suspension per well (5000 cells/well) into solid white 384 plates (Corning 3574).

Sm.5HTR [2] = molecular target: Sm.5HTR (Schistosoma mansoni, UniProt G4V5G4); format: cell-based; settings: for activity at Sm.5HTR, in words: antagonist screen, FIG. 7
Method: (§1) HEK293 cells (ATCC CRL-1573.3) were cultured in DMEM supplemented with 10% fetal bovine serum (FBS), penicillin (100 units/mL), streptomycin (100 μg/mL), and L-glutamine (290 μg/mL). Cells were transiently transfected (ViaFect, Promega) as per the manufacturer's protocol at a density of 2×10^6 cells per T-25 cell-culture flask. Cells were transfected with plasmids encoding GloSensor (Promega) and either Sm.5HTR, (Smp_126730, GenBank accession number KF444051.1) or Sm.5HTRL (KX150867), both GPCRs being codon optimized for mammalian expression, or Hs.5HT7a (GenBank accession number NM_000872.4, R&D Systems) subcloned into pCS2(−). Cell culture reagents were from Invitrogen. Epitope tagged constructs were used to verify expression, and untagged constructs used for all luminescence assays.
(§2) For assays performed on adherent cells, HEK-293 cells were transferred one day post transfection to 96 well, solid white plates (Corning, cat #3917) coated with 0.01% poly-L-lysine (Sigma Aldrich) at a density of 5×10^4 cells/well in DMEM supplemented with 1% dialyzed FBS (Gibco). After overnight culture (37° C./5% CO2), media was decanted and replaced with 100 μL/well HBSS supplemented with 0.1% BSA, 20 mM HEPES (pH 7.4) and GloSensor™ reagent. Plates were allowed to equilibrate at room temperature for two hours prior to performing luminescence assays (GloMax-Multi Detection System plate reader, Promega). Conditions for individual assays were described as per figure legends. The standard assay to detect changes in cAMP utilized the F22 sensor in media supplemented with IBMX (200 μM). Ligands were added at a concentration of 20× per well for experiments (i.e., 5 μl of drug solution added to 100 μL of cells). […] For the resazurin reduction assay for cellular viability, cells were incubated with resazurin (final concentration, 10 μM) and tested ligands with fluorescence measurements (560 nm excitation/590 nm emission) made at 1.5 hours intervals.
(§3) The protocol for screening is shown schematically in FIG. 5A. HEK293 cells transiently transfected with either the human 5HT7 receptor (Hs.5HT7R) or the schistosome receptor (Sm.5HTR) were exposed to test ligands in a 96-well plate format. […] Luminescence was then read at a fixed time point (t=60 minutes, FIG. 5A). Hits were assigned as compounds that evoked a ≥50% decrease in luminescence output at the fixed time sampling point (FIG. 5B).

Sm.5HTRL = Sm.5HTRL (Schistosoma mansoni, UniProt A0A173FEI8); test: GloSensor cAMP assay, HEK293 cells transiently transfected with Sm.5HTRL; format: cell-based; settings: antagonists 10 μM; 5-HT EC80 dose 0.8 μM (FIG. 8)
Method: as §1, §2

Hs.5HT7R = molecular target: T1, Hs.5HT7R (Homo sapiens, UniProt P34969); test: GloSensor cAMP assay, HEK293 cells transiently transfected with Hs.5HT7R; format: cell-based
T1 construct: host or cells: HEK293 (ATCC CRL-1573.3), transient, pCS2(−), co-transfected with GloSensor
Method: as §1, §2, §3

[3] = test system: S. mansoni schistosomules; test: Schistosomule contractility assay; format: cell-based; settings: Schistosoma mansoni, read-out: IC50, inhibition of 5-HT evoked contractions
Method: FIGS. 14A-14F. […] Effects of selected ligands on schistosomules. […] A contractile cycle is defined when a deviation of ≥20% of the average body length (dashed lines) occurs.
Biomphalaria glabrata (M-line) snails exposed to Schistosoma mansoni miracidia (Strain PR-1) were obtained from BEI Resources (Cat. number NR-21961) and cercaria were shed following exposure to light (1.5 hours). Cercaria were manually transformed into schistosomula by vortexing (3×45 seconds, each separated by 3 minutes on ice) and tails were removed by gradient centrifugation (24 mL Percoll, 4 mL 10×EMEM, 1.5 ml penicillin-streptomycin, 1 mL of 1M HEPES in 0.85% NaCl, 9.5 ml distilled water) at 500 g/15 minutes at 4° C. Supernatant containing tails was discarded, and schistosomules were resuspended in Basch media and incubated (37° C., 5% CO2) overnight before conducting mobility assays. For contractility experiments, somules were incubated in 5-HT free Basch media to resolve a basal contractility rate. […] Schistosomules were incubated in 24 well plates (about 200 schistosomules/0.5 mL media per well) for 30 minutes (37° C./5% CO2) prior to acquiring videos of schistosome movement (1 minute recordings/well) using a Nikon Coolpix 5700 camera affixed to a Nikon Eclipse TS100 microscope (10× objective). The WrmTrck plugin for ImageJ was used to quantify worm mobility (El-Shehabi et al., 2012). Briefly, the major axis of each schistosomule body length was extracted from the raw output of WrmTrck and an average length was determined for the duration of the recording. Contractions were quantified by determining the number of episodes during which the worm body length deviated from the average by over 20%. S. mansoni protocols were approved by the Iowa State University Institutional Biosafety Committee.

adult schistosomes = test: Egg laying assay, adult schistosome pairs in vitro; format: cell-based, Schistosoma mansoni; settings: serotonin 100 μM, forskolin 100 μM, LSD 10 μM, nuciferine 10 μM, ergotamine 5 μM (FIG. 19F); eggs per worm pair/day over five days
From the text: Female Swiss Webster mice infected with S. mansoni cerceria (NMRI strain) were sacrificed 49 days post infection by CO2 euthanasia. Adult schistosomes were recovered by perfusion with a solution of 0.85% sodium chloride+0.75% sodium citrate and dissection of the mesenteric vasculature. Harvested schistosomes were washed in RPMI 1640 Medium with GlutaMAX+5% heat inactivated FBS (Gibco) and Penicillin-Streptomycin (final concentration 100 units/mL, ThermoFisher cat #15140122).
For egg laying assays, adult schistosomes were transferred to 24 well plates the day after harvesting from mice (5 worm pairs in 2 mL media per well). Eggs were counted under a stereomicroscope daily, after which worms were transferred to a new well with fresh drug containing media. Egg counts were recorded for five days, and data processed as the mean number of eggs laid per worm pair/day. Measurements of egg dimensions were quantified using the “analyze>measure” function in ImageJ to record the length and width of individual eggs.

[4] = antagonism of 5-HT evoked cAMP, FIGS. 7, 12, 13
[5] = HEK293, agonist read, 45 minutes, read-out: Sm.5HTR Emax

Sequence of Sm.5HTR (Schistosoma mansoni, UniProt G4V5G4) (G4V5G4 entry or part of it): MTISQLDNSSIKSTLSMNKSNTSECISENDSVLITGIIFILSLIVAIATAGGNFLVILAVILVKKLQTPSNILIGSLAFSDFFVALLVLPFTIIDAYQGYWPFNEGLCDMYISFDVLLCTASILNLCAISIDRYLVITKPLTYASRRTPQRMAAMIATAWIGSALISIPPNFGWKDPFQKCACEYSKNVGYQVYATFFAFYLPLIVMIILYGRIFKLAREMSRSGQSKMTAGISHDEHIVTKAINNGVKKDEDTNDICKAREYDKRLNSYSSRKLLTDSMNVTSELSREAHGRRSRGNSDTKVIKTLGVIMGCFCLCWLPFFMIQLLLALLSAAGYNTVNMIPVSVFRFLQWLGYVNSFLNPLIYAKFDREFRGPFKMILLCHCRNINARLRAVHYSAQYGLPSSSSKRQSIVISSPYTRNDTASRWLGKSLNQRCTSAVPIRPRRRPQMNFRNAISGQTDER
Sequence of Sm.5HTR (Schistosoma mansoni, UniProt A0A173FEI8) (A0A173FEI8 entry or part of it): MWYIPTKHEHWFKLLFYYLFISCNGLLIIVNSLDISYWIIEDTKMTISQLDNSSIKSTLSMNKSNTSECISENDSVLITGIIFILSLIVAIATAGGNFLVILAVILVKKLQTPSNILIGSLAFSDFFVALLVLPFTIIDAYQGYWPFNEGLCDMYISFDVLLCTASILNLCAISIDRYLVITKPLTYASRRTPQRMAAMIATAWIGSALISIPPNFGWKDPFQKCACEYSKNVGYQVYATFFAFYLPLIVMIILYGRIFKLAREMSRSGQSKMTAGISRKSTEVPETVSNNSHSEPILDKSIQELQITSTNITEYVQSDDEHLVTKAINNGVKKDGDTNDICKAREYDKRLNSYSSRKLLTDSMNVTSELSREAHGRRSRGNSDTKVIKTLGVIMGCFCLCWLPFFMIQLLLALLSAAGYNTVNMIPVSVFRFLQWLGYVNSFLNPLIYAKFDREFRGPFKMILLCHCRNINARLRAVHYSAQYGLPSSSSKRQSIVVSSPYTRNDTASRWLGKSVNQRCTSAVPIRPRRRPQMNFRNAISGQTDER
Sequence of Sm.5HTRL (A0A173FEI8 entry or part of it): as above
T1 sequence (P34969 1-445 isoform P34969-2): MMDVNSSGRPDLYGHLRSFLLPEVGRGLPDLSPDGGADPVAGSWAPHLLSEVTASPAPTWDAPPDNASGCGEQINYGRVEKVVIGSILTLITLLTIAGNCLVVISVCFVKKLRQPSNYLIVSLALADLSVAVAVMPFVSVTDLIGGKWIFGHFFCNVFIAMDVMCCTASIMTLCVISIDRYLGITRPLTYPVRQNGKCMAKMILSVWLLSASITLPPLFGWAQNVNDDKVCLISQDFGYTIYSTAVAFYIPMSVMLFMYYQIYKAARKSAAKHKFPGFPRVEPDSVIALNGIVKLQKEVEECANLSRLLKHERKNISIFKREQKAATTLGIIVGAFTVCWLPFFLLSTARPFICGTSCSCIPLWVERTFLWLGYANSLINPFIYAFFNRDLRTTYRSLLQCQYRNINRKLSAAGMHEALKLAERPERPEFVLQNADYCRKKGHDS

CC(C)C[C@H]1C(=O)N2CCC[C@H]2[C@]2(O)O[C@](NC(=O)[C@@H]3C=C4c5cccc6[nH]cc(c56)C[C@H]4N(C)C3)(C(C)C)C(=O)N12 [α-ergocryptine]
antagonist activity at Sm.5HTR, in words (Sm.5HTR [1]): loss of antagonist activity | Sm.5HTR Emax (Sm.5HTR [1]; agonist read, 45 minutes): negligible activity

COc1cc2c(cc1OC)-c1cc3ccc(OC)c(OC)c3c[n+]1CC2 [palmatine]
selectivity Sm.5HTR versus Hs.5HT7R (IC50 (Hs.5HT7R)/IC50 (Sm.5HTR)), in words (Sm.5HTR [2]; [4]): decreased potency and selectivity for Sm.5HTR

COc1cc2nc(N(C)CCCNC(=O)C3CCCO3)nc(N)c2cc1OC (stereo not shown) [alfuzosin]
selectivity Sm.5HTR versus Hs.5HT7R (IC50 (Hs.5HT7R)/IC50 (Sm.5HTR)), in words (Sm.5HTR [2]; [4]): clear selectivity for Sm.5HTR | inhibition of 5-HT evoked cAMP generation through Sm.5HTRL (Sm.5HTRL): inhibited 5-HT evoked cAMP generation through Sm.5HTRL

CC(C)[C@@]1(NC(=O)[C@@H]2C[C@@H]3c4cccc5[nH]cc(c45)C[C@H]3N(C)C2)O[C@@]2(O)[C@@H]3CCCN3C(=O)[C@H](Cc3ccccc3)N2C1=O [dihydroergocristine]
antagonist activity at Sm.5HTR, in words (Sm.5HTR [1]): is an antagonist | Emax (Sm.5HTR [1]; [5]): 22 ± 2%

COc1ccc2cc1Oc1ccc(cc1)C[C@H]1c3cc(c(OC)cc3CCN1C)Oc1c(OC)c(OC)cc3c1[C@H](C2)N(C)CC3 [tetrandrine]
potency (IC50) at Hs.5HT7R, lower right quadrant of FIG. 13 (Hs.5HT7R; inhibition of cAMP generation): supra-μM potency | potency (IC50) at Sm.5HTR, lower right quadrant of FIG. 13 (Sm.5HTR [2]; inhibition of cAMP generation): sub-μM potency | IC50 [3]: ≤ 1 µM

CC1CCN(CC[C@H]2CCCN2S(=O)(=O)c2cccc(O)c2)CC1 [SB269970]
activity at Sm.5HTR, in words (Sm.5HTR [2]): modest effects on Sm.5HTR | activity at Sm.5HTR, in words (Sm.5HTR [2]; listed as SB 269970): completely lacked activity at Sm.5HTR

CCN(CC)C(=O)[C@@H]1C=C2c3cccc4[nH]cc(c34)C[C@H]2N(C)C1 [LSD, lysergic acid diethylamide]
EC50 (Sm.5HTR [1]): 0.25 ± 0.15 µM | Emax (Sm.5HTR [1]; HEK293, read-out: Sm.5HTR Emax): 40 ± 26% | decrease of egg laying (adult schistosomes): no effect | inhibition of 5-HT evoked cAMP generation at higher concentrations (Sm.5HTR [2]; >10 μM): almost complete inhibition | agonist efficacy at Sm.5HTR, in words (Sm.5HTR [2]; FIG. 10A): no efficacy | Kb (Sm.5HTR [2]; antagonism of 5-HT evoked cAMP accumulation, FIG. 10F, read-out: affinity constants (KB), Schild regression analysis): 0.629 µM | nature of antagonism: right-shift in the 5-HT dose-response relationship (Sm.5HTR [2]; increasing doses of ligand, FIGS. 10B-D): competitive antagonism

COc1ccc2cc3[n+](cc2c1OC)CCc1cc2c(cc1-3)OCO2 [berberine]
selectivity Sm.5HTR versus Hs.5HT7R (IC50 (Hs.5HT7R)/IC50 (Sm.5HTR)), in words (Sm.5HTR [2]; [4]): decreased potency and selectivity for Sm.5HTR

O=S(=O)(c1ccccc1)c1cnc2c(N3CCNCC3)cccc2c1 [SB742457]
inhibition of Hs.5HT7R, in words (Hs.5HT7R; FIG. 7): potent inhibitors of Hs.5HT7R | activity at Sm.5HTR, in words (Sm.5HTR [2]): completely lacked activity at Sm.5HTR; also recorded: modest effects on Sm.5HTR

CNCC[C@@H](Oc1ccccc1C)c1ccccc1 [atomoxetine]
selectivity Sm.5HTR versus Hs.5HT7R (IC50 (Hs.5HT7R)/IC50 (Sm.5HTR)), in words (Sm.5HTR [2]): clear selectivity for Sm.5HTR; also recorded: preferential selectivity toward Sm.5HTR | inhibition of 5-HT evoked cAMP generation through Sm.5HTRL (Sm.5HTRL): inhibited 5-HT evoked cAMP generation through Sm.5HTRL

CN1C[C@H](C(=O)N[C@]2(C)O[C@@]3(O)[C@@H]4CCCN4C(=O)[C@H](Cc4ccccc4)N3C2=O)C[C@@H]2c3cccc4[nH]cc(c34)C[C@H]21 [dihydroergotamine]
Emax (Sm.5HTR [1]; HEK293, read-out: Sm.5HTR Emax): 103 ± 11% | agonist efficacy at Sm.5HTR, in words (Sm.5HTR [2]; FIG. 10A): partial agonism | EC50 (Sm.5HTR [2]; FIG. 10A, read-out: EC50, agonist activity at Sm.5HTR): 0.315 µM

CCN1CCCC1CNC(=O)c1cc(S(=O)(=O)CC)c(N)cc1OC (stereo not shown) [amisulpiride]
activity at Sm.5HTR, in words (Sm.5HTR [2]): modest effects on Sm.5HTR

CCN(CC)C(=O)N[C@H]1C[C@@H]2c3cccc4[nH]cc(c34)C[C@H]2N(C)C1 [terguride]
IC50 (Sm.5HTR [1]; 5-HT 500 nM, read-out: Sm.5HTR IC50 (antagonist)): 0.4 ± 0.05 µM | agonist activity at Sm.5HTR, in words (Sm.5HTR [1]; FIG. 18C): completely eliminates agonist activity

C[C@@H](CO)NC(=O)[C@@H]1C=C2c3cccc4[nH]cc(c34)C[C@H]2N(C)C1 [ergometrine]
Emax (Sm.5HTR [1]; [5]): 61 ± 4%

C=C[C@@]1(C)CC(=O)[C@]2(O)[C@@]3(C)[C@@H](O)CCC(C)(C)[C@@H]3[C@H](O)[C@H](OC(C)=O)[C@@]2(C)O1 [forskolin]
decrease of egg laying (adult schistosomes): 62%

CNCCC(Oc1ccc(C(F)(F)F)cc1)c1ccccc1 (stereo not shown) [fluoxetine]
selectivity Sm.5HTR versus Hs.5HT7R (IC50 (Hs.5HT7R)/IC50 (Sm.5HTR)), in words (Sm.5HTR [2]): preferential selectivity toward Sm.5HTR

COc1cc2c3c(c1OC)-c1ccccc1C[C@H]3N(C)CC2 [nuciferine]
decrease of egg laying (adult schistosomes): no effect
